Data from US20110189306A1, “COMPOUNDS, COMPOSITIONS AND TREATMENTS FOR V-ATPase RELATED DISEASES” (priority 2010, published 2011).
“Also recorded” adds a separate entry of the source. Each block holds one compound with its values, some of them ahead of it.

Experiments:
[1] = tested on: undifferentiated RAW 264.7 cells; experiment: Protein assay on cell cultures (effect on cellular growth); format: cell-based, mouse; settings: for effect on cell growth, metabolic activity, cytotoxicity (in words): at 1.25 μM / at a concentration efficacious in inhibiting acid secretion; for concentration that did not significantly affect cell growth / total protein: undifferentiated RAW 264.7 cells, 0.3 to 40 μM tested, n=3
Description: Concentration range of compound tested was from 0.3 to 40 μM, as indicated (n=3, error bars are +/−SD). […] C indicates control, vehicle only added. The test cell line was undifferentiated RAW 264.7 cells.

[2] = tested on: undifferentiated RAW 264.7 cells; experiment: MTT assay to determine cytotoxicity; format: cell-based, mouse
Description: The concentration range of compound tested was from 0.3 to 40 μM, as indicated (n=3). Yellow MTT is converted to purple formazan by mitochondrial reductases. Formazan is measured spectrophotometrically to deduce metabolic activity of test cells. Reduced metabolic activity indicates metabolic dysfunction due to cytotoxicity. In this case, significant cytotoxicity is not seen up to 2.5 μM KM91104 concentration. C indicates control, vehicle only added. The test cell line was undifferentiated RAW 264.7 cells.

RAW 264.7 cells [3] = experiment: Total solubilized TRAP assay of RANKL-mediated differentiation; format: cell-based, mouse; settings: 3 days of growth with RANKL, 0.3 to 40 μM tested
Description: The concentration range of compound tested was from 0.3 to 40 μM, as indicated (see Materials and Methods). C indicates control, vehicle only added. TRAP is a marker for osteoclast differentiation and will convert colorless p-nitrophenylphosphate to yellow nitrophenol under acidic conditions. The yellow color is quantified spectrophotometrically and indicates degree of differentiation after 3 days of growth with RANKL.

RAW 264.7 cells [4] = experiment: TRAP staining analysis (qualitative and cell counts) of RANKL-mediated differentiation and fusion; format: cell-based, mouse; settings: for effect on osteoclast formation, differentiation and fusion (in words): at 1.25 μM / at a concentration efficacious in inhibiting acid secretion, where stated
Description: The concentration range of compound tested was from 0.6 to 40 μM, as follows (in μM): a, control, vehicle only; b, 0.63; c, 1.25; d, 2.5; e, 5.0; f, 10; g, 20; h, 40. […] The latter observation is consistent with the conclusion of the protein assay of FIG. 7.
Plotted are cell counts for multinucleated cells with greater than 3 nuclei after treatment with compound KM91104. This figure confirms the qualitative conclusion of FIG. 10 that there is a drop off in the number of larger osteoclasts above 1.25 μM concentration.

[5] = tested on: mouse bone marrow-derived macrophages (BMM); experiment: TRAP staining of osteoclasts RANKL-differentiated from bone marrow-derived macrophages; format: cell-based; settings: 1.25 μM
Description: Panels show: a, control, vehicle only; b and c are duplicates with 1.25 μM KM91104.

[6] = tested on: RANKL-differentiated RAW 264.7 cells; experiment: Hydroxyapatite resorption on Corning Osteo-Assay Surface plates; format: cell-based, mouse; settings: for acid secretion of osteoclasts (in words): murine osteoclasts
Description: RAW 264.7 cells (American Type Culture Collection (ATCC), cat. no. TIB-71) were differentiated in the presence of 100 ng/ml RANKL on synthetic mineralized surfaces of Corning Osteo-Assay Surface 96-well plates (Corning Inc. Life Sciences, Lowell, Mass.; cat. no. 3988XX1). Cells were cultured for 5 days in 200 μl α-MEM (Grand Island Biological Co. (GIBCO)/Invitrogen Corp. cat. no. 12571-063) with 10% fetal bovine serum (FBS; (GIBCO/Invitrogen) cat. no. 10437-028, Lot 1233072). Exposure of cells to RANKL and KM91104 was continuous throughout the experiment. The complete medium was changed on the third day. On day 5, cells were removed using 3% sodium hypochlorite solution. Plates were air dried and then imaged using digital brightfield photomicrography (Leica DM IRE2 with OpenLab software, Leica Microsystems, Richmond Hill, Canada). Image analysis was carried out with NIH ImageJ software (National Institutes of Health, Bethesda, Md.). Concentrations of KM91104 (μM) in medium were as follows: a, control, vehicle only; b, 0.63; c, 1.25; d, 2.5; e, 5.0; f, 10; g, 20; h, 40.
The concentration range of KM91104 tested was from 0.3 to 40 μM, as indicated (see Materials and Methods). C indicates control, vehicle only added. […] Error bars indicate +/−SD (n=3).
Bone resorption (FIGS. 13 and 14) was assayed using the following method. RAW 264.7 cells were differentiated on synthetic mineralized surfaces in 96 well Corning Osteo Assay Surface plates with 100 ng/ml RANK ligand. Wells were simultaneously treated with the lead compound. Cells were cultured for 5 days in […] of α-MEM. The complete medium was changed on the third day. On day 5, cells were removed using 50% bleach solution. Plates were dried and imaged using digital brightfield photomicrograpy. Image analysis was carried out using ImageJ.

[7] = biological target: TRX-NTa3 fusion protein (TRX-G2-NTa3(1-393)), N-terminal domain of mouse V-ATPase subunit a3 fused to thioredoxin (mouse); experiment: ELISA saturation curve, plate coated with TRX-NTa3, GST-B1 as analyte; apparent Kd from half-maximal binding
[8] = biological target: TRX-NTa3 fusion protein (TRX-G2-NTa3(1-393)), N-terminal domain of mouse V-ATPase subunit a3 fused to thioredoxin (mouse); experiment: ELISA saturation curve, plate coated with TRX-NTa3, GST-B2 as analyte; apparent Kd from half-maximal binding
[9] = biological target: TRX-NTa3 fusion protein (TRX-G2-NTa3(1-393)), N-terminal domain of mouse V-ATPase subunit a3 fused to thioredoxin (mouse); experiment: ELISA, plate coated with TRX-NTa3, GST-CTB2 as analyte; apparent Kd
[10] = biological target: TRX-NTa3 fusion protein (TRX-G2-NTa3(1-393)), N-terminal domain of mouse V-ATPase subunit a3 fused to thioredoxin (mouse); experiment: ELISA, plate coated with TRX-NTa3, GST-NTB2 against GST-B2(GH)
[11] = biological target: TRX-NTa3 fusion protein (TRX-G2-NTa3(1-393)), N-terminal domain of mouse V-ATPase subunit a3 fused to thioredoxin (mouse); experiment: ELISA, plate coated with TRX-NTa3, GST-NTB2 as analyte; apparent Kd

Kd [7]: 2.3 nM
Compound: GST-B1(GH) fusion protein (GST-G2-B1(1-513)-G2H6G2), full length mouse V-ATPase subunit B1 fused to glutathione-S-transferase (from UniProt Q91YH6)

Kd [8]: 2.4 nM
Compound: GST-B2(GH) fusion protein (GST-G2-B2(1-511)-G2H6G2), full length mouse V-ATPase subunit B2 fused to glutathione-S-transferase

Kd [9]: 4.1 nM
Compound: GST-CTB2 fusion protein (GST-G2-B2(148-511)), C-terminal domain of mouse V-ATPase subunit B2 fused to glutathione-S-transferase

Second part, the compound before the results:

Compound: O=C(N/N=C/c1ccccc1O)c1ccc(O)c(O)c1 [KM91104, 3,4-dihydroxy-N′-(2-hydroxybenzylidene)benzohydrazide]
effect on cell growth, metabolic activity, cytotoxicity (in words) [1]: does not affect cell growth or cause cytotoxicity
effect on cell growth, metabolic activity, cytotoxicity (in words) ([1]; listed as lead compound): no discernable effect on growth or metabolic activity
concentration that did not significantly affect cell growth / total protein [1]: up to 20 μM
concentration that did not significantly affect cell growth / total protein ([1]; listed as lead compound): < 20 µM
toxicity (in words) ([2]; murine RAW264.7 cells): low toxicity
concentration up to which significant cytotoxicity is not seen (MTT) ([2]; undifferentiated RAW 264.7 cells, 0.3 to 40 μM tested, n=3): up to 2.5 μM
concentration up to which differentiation / mature osteoclast formation is not appreciably affected (TRAP) (RAW 264.7 cells [3]): up to 20 μM
concentration up to which differentiation / mature osteoclast formation is not appreciably affected (TRAP) (RAW 264.7 cells [3]; listed as lead compound): < 20 µM
concentration above which osteoclast size / number of larger osteoclasts (>3 nuclei) is reduced (fusion impaired) (RAW 264.7 cells [4]; RANKL-differentiated RAW 264.7, 0.6 to 40 μM tested): above 1.25 μM
TRAP staining of cells (RAW 264.7 cells [4]; all concentrations, 0.63 to 40 μM): essentially all cells stain for TRAP
effect on osteoclast formation, differentiation and fusion (in words) (RAW 264.7 cells [4]): does not affect osteoclast differentiation or fusion to form large osteoclasts
effect on osteoclast formation, differentiation and fusion (in words) (RAW 264.7 cells [4]; listed as lead compound): limited effect on their ability to differentiate or undergo fusion
effect on osteoclast formation, differentiation and fusion (in words) (RAW 264.7 cells [4]; listed as the compound): little effect on osteoclast formation and differentiation
cell density (RAW 264.7 cells [4]; highest concentration (40 μM)): reduction of cell density
concentration that does not affect osteoclast fusion (RAW 264.7 cells [4]; summary of FIGS. 10 and 11): < 5 µM
formation / maturation of large BMM-derived osteoclasts [5]: does not significantly affect the formation of large osteoclasts
formation / maturation of large BMM-derived osteoclasts ([5]; listed as lead compound): does not affect BMM derived osteoclast maturation
IC50 ([6]; Mus musculus, RAW264.7, 120 h, 5 days, continuous exposure to RANKL and compound, image analysis of resorption areas, n=3, read-out: concentration for approximately half-maximal inhibition of resorption): ~1250 nM
effect on resorption (in words) ([6]; in vitro, synthetic mineralized surface, listed as lead compound): inhibited resorption without affecting osteoclast formation; also recorded: prevents bone resorption in vitro
reduction in resorption ([6]; lowest concentration tested (range 0.3 to 40 μM)): Highly significant reduction in resorption
acid secretion of osteoclasts (in words) ([6]; listed as lead compound): inhibits acid secretion
acid secretion of osteoclasts (in words) ([6]; listed as the compound): significantly reduced acid secretion

Compound: GST-NTB2 fusion protein (GST-G2-B2(1-112)), N-terminal domain of mouse V-ATPase subunit B2 fused to glutathione-S-transferase
fold reduction of binding against the full-length B2 subunit [10]: 60 fold
Kd [11]: 230 nM
